{"source": "ChEMBL document CHEMBL1144690", "about": "“Isolation of cytotoxic metabolites from targeted peruvian amazonian medicinal plants” (2008)", "tested_on": "Mycobacterium tuberculosis", "experiment": "Antimicrobial activity against multidrug resistant Mycobacterium tuberculosis", "type": "functional"}
{"smiles": "C/C=C1/CN2CC[C@@]34c5ccccc5N5/C=C6/[C@H]7C[C@@H]8N(CC[C@@]89c8ccccc8N(/C=C(/[C@H]1C[C@H]23)[C@H]54)[C@@H]69)C/C7=C/C", "note": "[BISNORDIHYDROTOXIFERINE]", "values": [{"measurement": "MIC", "value": 6.25, "unit": "µg/mL"}]}
